Results on one compound are retold here after patent US10149887B2, “Peptides and peptidomimetics in combination with t cell activating and/or checkpoint inhibiting agents for cancer treatment” (CanBas Co., Ltd., priority 2015, dated 2018).

Read-outs that look alike come from different tables or passages of the source. Square brackets hold non-standard residues; d marks the D form. Peptide text beside a SMILES is read from it. dPhe(F5) = N[C@H](Cc1c(F)c(F)c(F)c(F)c1F)C(=O)O; dBpa = N[C@H](Cc1ccc(C(=O)c2ccccc2)cc1)C(=O)O; dCha = N[C@H](CC1CCCCC1)C(=O)O

Assay [1] concerns MIAPaCa2. As to conditions: three hours exposure. How it is done:
The medium was changed and incubated an additional 24, 48 or 72 hour. Following incubation, 20 μl of alamarBlue 90% reagent was added to each well for another 6 hours for detection of cell viability by fluorescent intensity. Fluorescent intensity was measured using a Spectrafluor Plus plate reader with exitation 530 nm and emission 590 nm. The IC50 was calculated (Table 6).

The test system of assay [2] is MIAPaCa2. The assay is described as follows: Sensitization of MIAPaCa2 to bleomycin or adriamycin (sub-G1 population, flow cytometry). It counts as cell-based, human. As to conditions: bleomycine 10 μg/ml or adriamycin 1 μg/ml, 3 hours, then 21 hours. The source says: FIGS. 3A and 3B Human pancreatic cancer derived cell line MIAPaCa2 treated with (FIG. 3A) bleomycin (Bleo) or (FIG. 3B) adriamycin (ADR) with various doses of compounds. Harvested cells were stained for their DNA and analyzed with flow cytometry. The % population of sub-G1 cells are indicated as dead cells.
The G2 checkpoint abrogating activity of various compounds at different doses on human pancreatic cancer derived cell line MIAPaCa2 treated with bleomycine (Bleo) or adriamycin (ADR) was studied. Briefly, cells were incubated with the compounds and bleomycine (10 μg/ml) or adriamycin (1 μg/ml) for 3 hours. The medium was changed and incubated for an additional 21 hours. Harvested cells were stained for DNA by propium iodide and analyzed with flow cytometry as previously described. The % of the sub-G1 cell population is indicated as dead cells in FIG. 3.
(In general: A flow cytometer gives signals particle by particle.)

Assay [3] deals with HUVEC. The assay is described as follows: G2 checkpoint abrogation by CBP501 combined with cis-platin, flow cytometry. As to conditions: umbilical vein endothelium, cis-platin 3 μg/ml 3 hr, then 45 hr. It counts as cell-based, human. Here is the method: The medium was aspirated, fresh medium without these compounds was added and the cells were incubated for an additional 45 hr. The cells including floating cells were harvested using trypsin-EDTA solution, incubated with Krishan's solution and analyzed for DNA content by flow cytometry as previously described.

`N=C(N)NCCC[C@@H](NC(=O)[C@@H](CCCNC(=N)N)NC(=O)[C@@H](CCC(N)=O)NC(=O)[C@@H](CCCNC(=N)N)NC(=O)[C@@H](CCCNC(=N)N)NC(=O)[C@@H](CCCNC(=N)N)NC(=O)[C@@H](CC1CCCCC1)NC(=O)[C@@H](Cc1c(F)c(F)c(F)c(F)c1F)NC(=O)[C@@H](CO)NC(=O)[C@@H](Cc1c[nH]c2ccccc12)NC(=O)[C@@H](CO)NC(=O)[C@H](N)Cc1ccc(C(=O)c2ccccc2)cc1)C(=O)O` [CBP501, (d-Bpa)(d-Ser)(d-Trp)(d-Ser)(d-Phe-2,3,4,5,6-F)(d-Cha)(d-Arg)(d-Arg)(d-Arg)(d-Gln)(d-Arg)(d-Arg)] (H-[dBpa][dS][dW][dS][dPhe(F5)][dCha][dR][dR][dR][dQ][dR][dR]-OH; N-terminus and C-terminus assumed): the IC50 – broadly, the concentration that gives 50% inhibition – in assay [1] (read-out: IC50 24 hr, CBP501 with 10 uM cisplatin, with 10 uM cisplatin, additional 24 hour) was 0.6 µM; in assay [1] (read-out: IC50 24 hr, additional 24 hour) it was 6 µM; in assay [1] (read-out: IC50 48 hr, CBP501 with 10 uM cisplatin, with 10 uM cisplatin, additional 48 hour) it was 1 µM; in assay [1] (read-out: IC50 48 hr, additional 48 hour), 10 µM; in assay [1] (read-out: IC50 72 hr, CBP501 with 10 uM cisplatin, with 10 uM cisplatin, additional 72 hour), 6 µM; in assay [1] (read-out: IC50 72 hr, additional 72 hour), 13 µM. Moreover, the “Sensitization of MIAPaCa2 cells to bleomycin and adriamycin (% sub-G1, dead cells)” value in assay [2] is “sensitized MIAPaCa2 cells to both bleomycin and adriamycin in a dose dependent manner”. Besides, the “G2 checkpoint abrogating dose of CBP501, cis-platin” value in assay [3] is >50 µM.
